Results published in US9821026B2, “Use of RET agonist molecules for haematopoietic stem cell expansion protocols and transplantation therapy and a RET agonist kit” (Instituto de Medicina Molecular, priority 2012, dated 2017).

How the values were obtained:
RET [1] = assay: Bcl2 and Bcl2l1 expression (RT-PCR) in LSK cells upon GFL treatment; assay type: cell-based, mouse; details: overnight GFL/GFRα stimulation; FIG. 3h
Procedure: (§1) 10^6 E14.5 WT Lin^negcKit^pos cells were cultured in DMEM and starved for 2 hours. To test CREB phosphorilation upon GFL stimulation Lin^negcKit^poscells were stimulated 1 hour with 500 ng/ml of each GFL and co-receptor. LSK cells were purified by flow cytometry and stimulated overnight with GFL/GFRα combinations in order to determine Bcl2 and Bcl2l1 expression levels. For inhibition experiments cells were incubated 2 hours prior GFLs stimulation, to test CREB phosphorilation, or during overnight stimulation with GFLs, to determine Bcl2 and Bcl2l1 expression levels, with SB 202190 and PD98,059 from Sigma-Aldrich or Akt1/2, Akt Inhibitor VIII and CBP-CREB Interaction Inhibitor from Calbiochem. Lin^negcKit^pos cells were stimulated with GFL/GFRα for 120 hours and 2.5×10^5 CD45.2^posLin^negcKit^pos cells were sequentially analysed by flow cytometry and transplanted into lethally irradiated hosts with a radio-protective dose 2.5×10^5 CD45.1 BM cells. […] When analysed by flow cytometry haematopoietic progenitors were further stained with an LSK antibody cocktail.
Real-time PCR analysis: RNA was extracted from cell suspension using RNeasy Mini Kit or RNeasy Micro Kit (Qiagen). […] Variance was analyzed using F-test. […] Kaplan-Meier survival curves were analyzed using a log rank test. […]

RET [2] = assay: Flow cytometry of kinase/CREB phosphorylation in LSK cells upon GFL stimulation; assay type: cell-based, mouse; details: GFLs for 1 h, FIG. 3g
Procedure: Intracellular stainings were done using BrdU Flow Kit and anti-BrdU (3D4), 7AAD, anti-Ki-67 (B56), anti-S6 (pS235/pS236) (N7-548) and anti-Akt (pT308) (JI-223.371) from BD Pharmingen, anti-human RET (132507) from R&D Systems, anti-PIP3 (Z-P345) from Echelon Biosciences, anti-CREB (pS133) (87G3), anti-p38 (pT180/Y182) (28B10), anti-Akt (pS473) (D9E) and anti-ERK1/2 (pT202/pY204) (D13.14.4E) from Cell Signaling Technology.
as §1, with “For inhibition experiments cells were incubated 2 hours prior GFLs stimulation, to test CREB phosphorilation, or during overnight stimulation with GFLs, to determine Bcl2 and Bcl2l1 expression levels, with SB 202190 and PD98,059 from Sigma-Aldrich or Akt1/2, Akt Inhibitor VIII and CBP-CREB Interaction Inhibitor from Calbiochem.” left out

E14.5 LSK cells = assay: Survival (AnnexinV) of LSK/HSC cells cultured with GFL/GFRα; assay type: cell-based, mouse; details: versus conventional medium / medium alone, FIG. 3d-e, FIG. 10c
Procedure: 10^6 E14.5 WT Lin^negcKit^pos cells were cultured in DMEM and starved for 2 hours. To test CREB phosphorilation upon GFL stimulation Lin^negcKit^poscells were stimulated 1 hour with 500 ng/ml of each GFL and co-receptor. LSK cells were purified by flow cytometry and stimulated overnight with GFL/GFRα combinations in order to determine Bcl2 and Bcl2l1 expression levels. For inhibition experiments cells were incubated 2 hours prior GFLs stimulation, to test CREB phosphorilation, or during overnight stimulation with GFLs, to determine Bcl2 and Bcl2l1 expression levels, with SB 202190 and PD98,059 from Sigma-Aldrich or Akt1/2, Akt Inhibitor VIII and CBP-CREB Interaction Inhibitor from Calbiochem. Lin^negcKit^pos cells were stimulated with GFL/GFRα for 120 hours and 2.5×10^5 CD45.2^posLin^negcKit^pos cells were sequentially analysed by flow cytometry and transplanted into lethally irradiated hosts with a radio-protective dose 2.5×10^5 CD45.1 BM cells. To detect Annexin V, 4×10^4 E14.5 WT or Ret^−/−Lin^negckit^pos cells per well were cultured overnight in DMEM alone or with GFL/GFRα. When analysed by flow cytometry haematopoietic progenitors were further stained with an LSK antibody cocktail.

lethally irradiated mice = assay: Competitive transplantation of GFL pre-treated progenitors into lethally irradiated hosts; assay type: in vivo, mouse; details: FIG. 4e-g
Procedure: Mice: C57BL/6J (CD45.2 and CD45.1), Rag1^−/− (CD45.2 and CD45.1)^29, Vav1-iCre^11, Gfra1^−/−22, Gfra2^−/−24, Gfra3^−/−23, Ret^MEN2B20 and Ret^−/−9 were on a C57BL/6J genetic background. All mice strains were bred and maintained at IMM animal facility. Animal procedures were performed in accordance to national and institutional guidelines. Generation of Ret Conditional Knockout Mice: To generate mice harbouring a conditional Ret knock-out allele we engineered a targeting construct that firstly, included the introduction of a floxed 2.1 kb, Neomycin resistance (Neo^r) cassette under the control of the phosphoglycerate kinase-1 (PGK) promoter and a polyA tail (pA). This cassette (PGK-NEO^r-pA) was inserted approximately 4.5 kb upstream at the Xho I site of the pBluescript KS (pBS KS) vector that carried approximately 13 kb of the 5′ end of mouse Ret genomic locus flanking exon 1. […] Colony-Forming Units Assays: 5×10^3 E14.5 Lin^negcKit^pos cells MACS purified (MiltenyiBiotec) from WT, Ret^−/− or Ret^MEN2B were cultured in M3434 (Stem Cell Technologies) and scored at day 8 to 10 by flow cytometry and microscope analysis. 3×10^4 E14.5 Lin^negcKit^pos cells were MACS (MiltenyiBiotec) purified from WT, Ret^−/− or Ret^MEN2B and were injected into lethally irradiated mice (9Gy) and CFUs scored after 8 to 10 days by flow cytometry and microscope analysis. […]

HSCs = assay: HSC expansion in culture with RET ligands (recovered LSKs and HSCs treated with GFLs for 4 days); assay type: cell-based, mouse; details: for HSC expansion in culture (true HSCs recovered): versus conventional medium only, FIG. 3d

glial cell-line derived neurotrophic factor (GDNF) ligands [GFLs]
Bcl2/Bcl2l1 expression by LSKs (RET [1]): increased Bcl2/Bcl2l1 expression | ERK1/2, PI3K/Akt phosphorylation in LSKs (RET [2]): stable | p38/MAP kinase and CREB phosphorylation in LSKs (RET [2]; FIG. 10e): rapid p38/MAP kinase and CREB phosphorylation | LSK and HSC survival in culture (E14.5 LSK cells): efficiently increased LSK and HSC survival | LSK and HSC survival in culture (E14.5 LSK cells; listed as RET ligands): survive almost three times better | transplantation fitness and HSC engraftment (lethally irradiated mice; E14.5 LSKs treated with GFLs, transplanted with competitor CD45.1 BM, versus untreated): strikingly increased transplantation fitness and HSC engraftment | increase in transplantation efficiency of expanded HSCs (lethally irradiated mice; versus HSCs expanded in conventional medium): circa 300 fold | differentiation of cells in expansion culture (HSCs; RET agonist treatment): do not alter the differentiation of cells | HSC expansion in culture (true HSCs recovered) (HSCs; listed as RET agonist): three times more true HSCs | HSC expansion in culture (true HSCs recovered) (HSCs; listed as RET ligands): three times higher | number of cells recovered in expansion culture (HSCs; versus current conventional medium): duplicate the number or cells recovered | increase of bona fide HSCs that maintain their stemness (HSCs; versus current state-of-the-art expansion methods): 20 fold
